Experimental data published in patent US6472348B1, “Pyridone derivatives and herbicides” (Kumiai Chemical Industry Co., Ltd., priority 1996, dated 2002).

How the values were obtained:
Type in all cases: in vivo
rice flatsedge (Ci) = experiment: Test Example 3: herbicidal effects by upland field foliage treatment; set-up: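 grade of growth control; 5 = at least 90%; 4 = 70 to 90%; 3 = 50 to 70%; 2 = 30 to 50%; 1 = 10 to 30%; 0 = under 10%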
Method in brief: (§1)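 Weeds sown in sand-filled pots and grown 2 weeks in a greenhouse before foliage treatment. Plants then kept in the greenhouse; herbicidal effect scored on day 14 after treatment against a graded standard scale.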

pale smartweed (Po) [1] = experiment: as above; set-up: scale not given here
Method in brief: as §1

[2] = system: common lambsquarters (Ch); experiment: as above; set-up: scale not given here
Method in brief: as §1

barnyardgrass (Ec) [3] = experiment: as above; set-up: scale not given here
Method in brief: as §1

Diaitaria ciliaris (Di) = experiment: as above; set-up: scale not given here
Method in brief: as §1

slender amaranth (Am) = experiment: Test Example 2: herbicidal effects by upland field soil treatment; conditions: 100 g of the active ingredient per 10 ares;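 further: grade of growth control; 5 = at least 90%; 4 = 70 to 90%; 3 = 50 to 70%; 2 = 30 to 50%; 1 = 10 to 30%; 0 = under 10%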
Source text: (§2) (Test on Herbicidal Effects by Upland Field Soil Treatment)

pale smartweed (Po) [4] = experiment: as above; conditions: 100 g of the active ingredient per 10 ares
Source text: as §2

[5] = system: common lambsquarters (Ch); experiment: as above; conditions: 100 g of the active ingredient per 10 ares
Source text: as §2

barnyardgrass (Ec) [6] = experiment: as above; conditions: 100 g of the active ingredient per 10 ares
Source text: as §2

soybean (Gl) = experiment: Test Example 6: crop plant selectivity by upland field soil treatment (soybean), phytotoxicity; set-up: scale not given here; conditions: 21st day after application
Method in brief: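 Seeds are sown in sand and covered with soil. The soil is treated with test compound. Pots are kept in a greenhouse. Weed control and soybean damage are rated visually 21 days after application.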

[7] = 100 g active ingredient per 10 ares, evaluated 14th day after treatment
[8] = evaluated on the 21st day after application
[9] = 100 g of the active ingredient per 10 ares, evaluated on the 14th day after treatment
[10] = 21st day after the application, index 0-5 of Table 47

| Compound | Herbicidal effects Ci (rice flatsedge (Ci); [7]) | Herbicidal effects Po (pale smartweed (Po) [1]; [7]) | Herbicidal effects Ch [2, 7] | Herbicidal effects Ec (barnyardgrass (Ec) [3]; [7]) | Herbicidal effects Di (Diaitaria ciliaris (Di); [7]) | Herbicidal effects Am (slender amaranth (Am); [8]) | Herbicidal effects Po (pale smartweed (Po) [4]; [8]) | Herbicidal effects Ch [5, 8] | Herbicidal effects Ec (barnyardgrass (Ec) [6]; [8]) | Phytotoxicity Gl (soybean (Gl); dose 1.6 g ai/10a) | Phytotoxicity Gl (soybean (Gl); dose 6.3 g ai/10a) | Herbicidal effects Ci (rice flatsedge (Ci); [9]) | Herbicidal effects Po (pale smartweed (Po) [1]; [9]) | Herbicidal effects Ch [2, 9] | Herbicidal effects Ec (barnyardgrass (Ec) [3]; [9]) | Herbicidal effects Di (Diaitaria ciliaris (Di); [9]) | Herbicidal effects Am (slender amaranth (Am); [10]) | Herbicidal effects Po (pale smartweed (Po) [4]; [10]) | Herbicidal effects Ch [5, 10] | Herbicidal effects Ec (barnyardgrass (Ec) [6]; [10]) |
| --- | --- | --- | --- | --- | --- | --- | --- | --- | --- | --- | --- | --- | --- | --- | --- | --- | --- | --- | --- | --- |
| Cc1cc2c(-c3ccc(C(F)(F)F)n(C)c3=O)c(F)cc(Cl)c2o1 [Compound 4-1] | 5 | 5 | 5 | 5 | 5 | 5 | 5 | 5 | 5 | 1 | 2 | – | – | – | – | – | – | – | – | – |
| Cn1c(C(F)(F)F)ccc(-c2cc(OCCCl)c(Cl)cc2F)c1=O [1-171] | – | – | – | – | – | 5 | 5 | 5 | 5 | – | 1 | 5 | 5 | 5 | 5 | 5 | – | – | – | – |
| Cn1c(C(F)(F)F)ccc(-c2cc(C#N)c(Cl)cc2F)c1=O [Compound No. 1-119, 3-(4-chloro-5-cyano-2-fluorophenyl)-1-methyl-6-trifluoromethyl-2(1H)-pyridone] | – | – | – | – | – | – | – | – | – | – | 2 | 5 | 5 | 5 | 5 | 5 | 5 | 5 | 5 | 5 |
| C#CC(C)Oc1cc(-c2cn(C)c(C(F)(F)F)cc2=O)c(F)cc1Cl (racemic) [Compound 6-10] | 5 | 5 | 5 | 5 | 5 | 5 | 5 | 5 | 5 | 0 | – | – | – | – | – | – | – | – | – | – |
| CCOCOc1cc(-c2ccc(C(F)(F)F)n(C)c2=O)c(F)cc1Cl [1-181] | – | – | – | – | – | 5 | 5 | 5 | 5 | – | 1 | 5 | 5 | 5 | 5 | 5 | – | – | – | – |
| CCc1cc2c(-c3ccc(C(F)(F)F)n(C)c3=O)c(F)cc(Cl)c2o1 [Compound 4-2] | 5 | 5 | 5 | 5 | 5 | 5 | 5 | 5 | 5 | 1 | – | – | – | – | – | – | – | – | – | – |
| CCCC(=O)c1cc(-c2ccc(C(F)(F)F)n(C)c2=O)c(F)cc1Cl [Compound No. 1-194, 3-[4-chloro-2-fluoro-5-(1-oxobutyl)phenyl]-1-methyl-6-trifluoromethyl-2(1H)-pyridone] | 5 | 5 | 5 | 5 | 5 | 5 | 5 | 5 | 5 | – | 1 | – | – | – | – | – | – | – | – | – |
| C#CCn1c(=O)sc2cc(F)c(-c3ccc(C(F)(F)F)n(C)c3=O)cc21 [Compound No. 3-1, 3-[6-fluoro-3-(2-propynyl)-benzothiazolin-2-on-5-yl]-1-methyl-6-trifluoromethyl-2(1H)-pyridone] | 5 | 5 | 5 | 5 | 5 | 5 | 5 | 5 | 5 | – | 1 | – | – | – | – | – | – | – | – | – |
| Cn1c(C(F)(F)F)ccc(-c2c(F)cc(Cl)c3occc23)c1=O [Compound No. 4-28, 3-(7-chloro-5-fluorobenzofuran-4-yl)-1-methyl-6-trifluoromethyl-2-(1H)-pyridone] | 5 | 5 | 5 | 4 | 5 | 5 | 5 | 5 | 4 | 2 | – | – | – | – | – | – | – | – | – | – |
| CCOC(=O)CON=Cc1cc(-c2ccc(C(F)(F)F)n(C)c2=O)c(F)cc1Cl [Compound 1-191] | 5 | 5 | 5 | 5 | 5 | 5 | 5 | 5 | 5 | – | 2 | – | – | – | – | – | – | – | – | – |
| C#CCN1C(=O)COc2cc(Cl)c(-c3ccc(C(F)(F)F)n(C)c3=O)cc21 [Compound 2-25] | 5 | 5 | 5 | 5 | 5 | 5 | 5 | 5 | 5 | 0 | 1 | – | – | – | – | – | – | – | – | – |
| CSCOc1cc(-c2ccc(C(F)(F)F)n(C)c2=O)c(F)cc1Cl [Compound 1-208] | 5 | 5 | 5 | 5 | 5 | 5 | 5 | 5 | 5 | – | 2 | – | – | – | – | – | – | – | – | – |
| Cn1c(C(F)(F)F)ccc(-c2cc(OCC3CC3)c(Cl)cc2F)c1=O [1-160] | – | – | – | – | – | – | – | – | – | – | 1 | 5 | 5 | 5 | 5 | 5 | 5 | 5 | 5 | 5 |
| Cn1c(C(F)(F)F)ccc(-c2cc(OCC(F)(F)F)c(Cl)cc2F)c1=O [1-155] | – | – | – | – | – | – | – | – | – | 0 | 0 | 5 | 5 | 5 | 5 | 5 | 5 | 5 | 5 | 5 |
| C#CCOc1cc(-c2ccc(C(F)(F)F)n(C)c2=O)c(Cl)cc1Cl [1-30] | – | – | – | – | – | – | – | – | – | 1 | – | 5 | 5 | 5 | 5 | 5 | 5 | 5 | 5 | 5 |
| COc1cc(-c2ccc(C(F)(F)F)n(C)c2=O)c(F)cc1Cl [1-15] | – | – | – | – | – | – | – | – | – | 2 | – | 5 | 5 | 5 | 5 | 5 | 5 | 5 | 5 | 5 |
| C#CC(C)Oc1cc(-c2ccc(C(F)(F)F)n(C)c2=O)c(F)cc1Cl (centres unmarked) [1-17] | – | – | – | – | – | – | – | – | – | 0 | – | 5 | 5 | 5 | 5 | 5 | 5 | 5 | 5 | 5 |
